IC50 data for 22 molecules are collected here from patent US10669238B2, “Irreversible bruton's tyrosine kinase inhibitor” (HEFEI INSTITUTES OF PHYSICAL SCIENCE, CHINESE ACADEMY OF …, priority 2016, dated 2020).

In one experiment the target is BTK protein kinase (Homo sapiens, UniProt Q06187). Briefly: In vitro enzymatic activity against BTK (ADP-Glo). It is filed as biochemical. The conditions noted are these: compound with BTK 4 hours at room temperature; ATP 10 μM, 37° C. 1 hour; values given in μM. As to the method: In vitro enzymatic activity of the compounds against BTK was determined in a experimental assay of in vitro enzymatic activity using […] kit (purchased from Progema, USA).
BTK protein kinase, sequence (Q06187 whole entry): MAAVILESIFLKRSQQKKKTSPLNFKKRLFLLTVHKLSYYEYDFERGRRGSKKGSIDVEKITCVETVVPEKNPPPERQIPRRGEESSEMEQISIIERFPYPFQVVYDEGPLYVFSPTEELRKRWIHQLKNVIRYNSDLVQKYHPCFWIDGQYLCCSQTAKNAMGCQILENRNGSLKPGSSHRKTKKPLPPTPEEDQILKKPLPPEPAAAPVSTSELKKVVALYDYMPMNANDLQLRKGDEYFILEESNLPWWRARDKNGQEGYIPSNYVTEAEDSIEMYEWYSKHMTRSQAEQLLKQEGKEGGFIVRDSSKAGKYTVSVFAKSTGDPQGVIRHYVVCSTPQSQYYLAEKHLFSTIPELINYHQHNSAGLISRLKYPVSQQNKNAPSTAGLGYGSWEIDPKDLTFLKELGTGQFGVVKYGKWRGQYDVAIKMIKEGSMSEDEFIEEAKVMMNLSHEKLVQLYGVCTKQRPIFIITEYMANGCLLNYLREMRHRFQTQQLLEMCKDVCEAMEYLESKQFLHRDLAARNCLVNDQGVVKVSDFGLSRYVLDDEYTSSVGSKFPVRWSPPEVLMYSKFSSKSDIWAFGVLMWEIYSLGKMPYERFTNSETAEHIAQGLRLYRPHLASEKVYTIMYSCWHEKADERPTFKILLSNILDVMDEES
9 μL of BTK protein kinase (at a concentration of 1.5 ng/μL) was used to react with compounds (1 μL) shown in the following table that were diluted three times in gradient at room temperature for 4 hours (the final concentration of the compound being 10 μM, 3 μM, 1 μM, 0.3 μM, 0.1 μM, 0.03 μM, 0.01 μM, 0.003 μM);
2 μL of ATP and 3 μL of the substrate Poly(4:1 Glu, Tyr)Peptide (Promega, USA) (the final concentrations being 10 μM and 0.2 μg/μL, respectively) were added to allow reaction at 37° C. for 1 hour;
5 μL of BTK kinase solution after reaction was taken and added into 5 μL of ADP-Glo™ (Promega, USA) reagent to allow reaction at room temperature for 40 mins so as to terminate the kinase reaction and exhaust the remaining ATP;
10 μL kinase detecting reagent was added to convert ADP to ATP, and newly synthesized ATP was detected using coupled luciferase/[…] reaction, then the IC50 values were calculated by using a plotting method based on the Envision reading.
With `Cc1c(NC(=O)c2ccc(C(C)(C)C)cc2)cc(NC(=O)CCl)cc1-c1cc(Nc2ccc(C(=O)N3CCOCC3)cc2)c(=O)n(C)c1` [Compound 7, 4-(tert-butyl)-N-(5-(2-chloroacetamide)-2-methyl-3-(1-methyl-5-((4-(morpholin-4-carbonyl)phenyl)amino)-6-oxo-1,6-dihydropyridin-3-yl)phenyl)benzoylamide], half-maximal inhibition (IC50) was put at 1.22 µM.
On the same count and under the same terms, then `C=CC(=O)Nc1cc(NC(=O)c2ccc(C(C)(C)C)cc2)c(C)c(-c2cc(Nc3ccc(C(=O)N4CCOCC4)cc3)c(=O)n(C)c2)c1` [Compound 8, 4-(tert-butyl)-N-(5-(2-acrylamide)-2-methyl-3-(1-methyl-5-((4-(morpholin-4-carbonyl)phenyl)amino)-6-oxo-1,6-dihydropyridin-3-yl)phenyl)benzoylamide], with 2.61 µM.

The experiment is the same for the next values; noted with them: compound with BTK 4 hours at room temperature; ATP 10 μM, 37° C. 1 hour; values in nM.
On to `C=CC(=O)Nc1cc(Nc2cc(-c3cccc(NC(=O)c4ccc(N5CCCC5)cc4)c3C)cn(C)c2=O)ccc1C(=O)N1CCOCC1` [Compound 45, N-(3-(5-((3-acrylamide-4-(morpholin-4-carbonyl)phenyl)amino)-1-methyl-6-oxo-1,6-dihydropyridin-3-yl)-2-methylphenyl)-4-(pyrrolidin-1-yl)benzoylamide], for which half-maximal inhibition (IC50) was put at 0.101 µM.
Still for that read-out and setting: then `Cc1ccc(Nc2cc(-c3cccc(NC(=O)c4ccc(C(C)(C)C)cc4)c3C)cn(C)c2=O)cc1NC(=O)CCl` [Compound 26, N-(3-(5-((3-chloroacetamide-4-methylphenyl)amino)-1-methyl-6-oxo-1,6-dihydropyridin-3-yl)-2-methylphenyl)-4-(tert-butyl)benzamide], with 0.223 µM; and `C=CC(=O)Nc1cc(Nc2cc(-c3cccc(NC(=O)c4ccc(C(C)(C)C)cc4)c3C)cn(C)c2=O)ccc1C(=O)NC1CC1` [Compound 46, 2-acrylamide-4-((5-(3-(4-(tert-butyl)benzamide)-2-methylphenyl)-1-methyl-2-oxo-1,2-dihydropyridin-3-yl)amino)-N-cyclopropylbenzoylamide], with 0.045 µM.
Take `C=CC(=O)Nc1cc(Nc2cc(-c3cccc(NC(=O)c4ccc(C(C)(C)C)cc4)c3C)cn(C)c2=O)ccc1C(=O)N(C)C` [Compound 28, 2-acrylamide-4-((5-(3-(4-(tert-butyl)benzamide)-2-methylphenyl)-1-methyl-2-oxo-1,2-dihydropyridin-3-yl)amino)-N,N-dimethylbenzoylamide]: half-maximal inhibition (IC50) was put at 0.025 µM.
Consider `C=CC(=O)Nc1cc(Nc2cc(-c3cccc(NC(=O)c4ccc(C5CC5)cc4)c3C)cn(C)c2=O)ccc1C(=O)N1CCOCC1` [Compound 66, N-(3-(5-((3-acrylamide-4-(morpholin-4-carbonyl)phenyl)amino)-1-methyl-6-oxo-1,6-dihydropyridin-3-yl)-2-methylphenyl)-4-cyclopropylbenzoylamide], for which inhibition was half-maximal at 0.18 µM (IC50).
For `C=CC(=O)Nc1cc(Nc2cc(-c3cccc(NC(=O)c4cc5c(s4)CCCC5)c3C)cn(C)c2=O)ccc1C(=O)N1CCCC1` [Compound 69, N-(3-(5-((3-acrylamide-4-(pyrrolidin-1-carbonyl)phenyl)amino)-1-methyl-6-oxo-1,6-dihydropyridin-3-yl)-2-methylphenyl)-4,5,6,7-tetrahydrobenzo[b]thiophene-2-carboxamide], the IC50 – broadly, the concentration that gives 50% inhibition – stood at 0.0836 µM.
The same measure, in the same setting: the result for `C=CC(=O)Nc1cc(Nc2cc(-c3cccc(NC(=O)c4ccc(C5CC5)cc4)c3C)cn(C)c2=O)ccc1N1CCN(C)CC1` [Compound 72, N-(3-(5-((3-acrylamide-4-(4-methylpiperazin-1-yl)phenyl)amino)-1-methyl-6-oxo-1,6-dihydropyridin-3-yl)-2-methylphenyl)-4-cyclopropylbenzoylamide] reads 0.18 µM; that for `C=CC(=O)Nc1cc(Nc2cc(-c3cccc(NC(=O)c4cc5ccccc5s4)c3C)cn(C)c2=O)ccc1N1CCN(CC)CC1` [Compound 91, N-(3-(5-((3-acrylamide-4-(4-ethylpiperazin-1-yl)phenyl)amino)-1-methyl-6-oxo-1,6-dihydropyridin-3-yl)-2-methylphenyl)benzo[b]thiophene-2-carboxamide], 0.156 µM; that for `C=CC(=O)Nc1cc(Nc2cc(-c3cccc(NC(=O)c4cc5c(s4)CCCC5)c3C)cn(C)c2=O)ccc1N1CCOCC1` [Compound 78, N-(3-(5-((3-acrylamide-4-morpholinophenyl)amino)-1-methyl-6-oxo-1,6-dihydropyridin-3-yl)-2-methylphenyl)4,5,6,7-tetrahydrobenzo[b]thiophene-2-carboxamide], 0.119 µM.
In turn, `C=CC(=O)Nc1cc(Nc2cc(-c3cccc(NC(=O)c4ccc(C(F)(F)F)cc4)c3C)cn(C)c2=O)ccc1C(=O)N1CCOCC1` [Compound 60, N-(3-(5-((3-acrylamide-4-(morpholin-4-carbonyl)phenyl)amino)-1-methyl-6-oxo-1,6-dihydropyridin-3-yl)-2-methylphenyl)-4-(trifluoromethyl)benzoylamide] had a half-inhibitory concentration (IC50) of 0.104 µM.
For the molecule `Cc1c(NC(=O)c2ccc(N3CCOCC3)cc2)cccc1-c1cc(Nc2ccc(C(=O)N3CCOCC3)c(NC(=O)CCl)c2)c(=O)n(C)c1` [Compound 16, N-(3-(5-((3-chloroacetamide-4-(morpholin-4-carbonyl)phenyl)amino)-1-methyl-6-oxo-1,6-dihydropyridin-3-yl)-2-methylphenyl)-4-morpholinbenzoylamide], 0.437 µM corresponded to half-maximal inhibition (IC50).
Consider `C=CC(=O)Nc1cc(Nc2cc(-c3cccc(NC(=O)c4cc5c(s4)CCCC5)c3C)cn(C)c2=O)ccc1N1CCN(C)CC1` [Compound 75, N-(3-(5-((3-acrylamide-4-(4-methylpiperazin-1-yl)phenyl)amino)-1-methyl-6-oxo-1,6-dihydropyridin-3-yl)-2-methylphenyl)-4,5,6,7-tetrahydrobenzo[b]thiophene-2-carboxamide], for which the half-inhibitory concentration (IC50) was found to be 0.007 µM.
The same measure, in the same setting: the result for `C=CC(=O)Nc1cc(Nc2cc(-c3cccc(NC(=O)c4ccc5c(c4)OCCO5)c3C)cn(C)c2=O)ccc1C(=O)N1CCOCC1` [Compound 44, N-(3-(5-((3-acrylamide-4-(morpholin-4-carbonyl)phenyl)amino)-1-methyl-6-oxo-1,6-dihydropyridin-3-yl)-2-methylphenyl)-2,3-dihydrobenzo[b][1,4]dioxin-6-carboxamide] reads 0.072 µM; that for `C=CC(=O)Nc1cc(Nc2cc(-c3cccc(NC(=O)c4cc5c(s4)CCCC5)c3C)cn(C)c2=O)ccc1N(C)C` [Compound 77, N-(3-(5-((3-acrylamide-4-(dimethylamino)phenyl)amino)-1-methyl-6-oxo-1,6-dihydropyridin-3-yl)-2-methylphenyl)-4,5,6,7-tetrahydrobenzo[b]thiophene-2-carboxamide], 0.101 µM; that for `C=CC(=O)Nc1cc(Nc2cc(-c3cccc(NC(=O)c4ccc(C(C)(C)C)cc4)c3C)cn(C)c2=O)ccc1C(=O)N1CCN(C)CC1` [Compound 3, N-(3-(5-((3-acrylamide-4-(4-methylpiperazin-1-carbonyl)phenyl)amino)-1-methyl-6-oxo-1,6-dihydropyridin-3-yl)-2-methylphenyl)-4-(tert-butyl)benzamide], 0.144 µM.
Molecule `C=CC(=O)Nc1cc(Nc2cc(-c3cccc(NC(=O)c4ccc(N(C)C)cc4)c3C)cn(C)c2=O)ccc1C(=O)N1CCC(O)CC1` [Compound 56, N-(3-(5-((3-acrylamide-4-(4-hydroxypiperdin-1-carbonyl)phenyl)amino)-1-methyl-6-oxo-1,6-dihydropyridin-3-yl)-2-methylphenyl)-4-(dimethylamino)benzoylamide] yielded an IC50 of 0.124 µM.
In turn, `C#CC(=O)Nc1cc(C(=O)N2CCOCC2)ccc1Nc1cc(-c2cccc(NC(=O)c3ccc(C(C)(C)C)cc3)c2C)cn(C)c1=O` [Compound 4, N-(3-(5-((2-propynamide-4-(morpholin-4-carbonyl)phenyl)amino)-1-methyl-6-oxo-1,6-dihydropyridin-3-yl)-2-methylphenyl)-4-(tert-butyl)benzamide] yielded an IC50 of 0.0326 µM.
`Cc1c(NC(=O)c2ccc3c(c2)OCO3)cccc1-c1cc(Nc2ccc(C(=O)N3CCOCC3)c(NC(=O)CCl)c2)c(=O)n(C)c1` [Compound 19, N-(3-(5-((3-chloroacetamide-4-(morpholin-4-carbonyl)phenyl)amino)-1-methyl-6-oxo-1,6-dihydropyridin-3-yl)-2-methylphenyl)-benzo[d][1,3]dioxolanyl-5-carboxamide]: the IC50 is 0.197 µM.
`CCC(=O)Nc1cc(Nc2cc(-c3cccc(NC(=O)c4cc5c(s4)CCCC5)c3C)cn(C)c2=O)ccc1C(=O)N1CCOCC1` [Compound 67, N-(3-(5-((3-propanamide-4-(morpholin-4-carbonyl)phenyl)amino)-1-methyl-6-oxo-1,6-dihydropyridin-3-yl)-2-methylphenyl)-4,5,6,7-tetrahydrobenzo[b]thiophene-2-carboxamide] yielded an IC50 of 0.025 µM.
Consider `CCC(=O)Nc1cc(Nc2cc(-c3cccc(NC(=O)c4ccc(C(C)(C)C)cc4)c3C)cn(C)c2=O)ccc1C(=O)N1CCNCC1` [Compound 41, N-(3-(5-((3-propanamide-4-(piperazin-1-carbonyl)phenyl)amino)-1-methyl-6-oxo-1,6-dihydropyridin-3-yl)-2-methylphenyl)-4-(tert-butyl)benzamide], for which it took 0.042 µM to reach half-maximal inhibition (IC50).
